Some results are limits rather than exact numbers.

For orientation: melting point means the temperature, or range, at which the solid turns liquid. By IC50 is commonly meant the concentration at which inhibition is half-maximal.

The test system of data set [1] is β-catenin/TCF complex. Kind of data set: cells. The format is cell-based. The conditions noted are these: IEC18-S33Y cells; for IC50: Rattus norvegicus, 17-20 h with compound, β-catenin-dependent firefly luciferase with Renilla control, read-out: IC50.
Data set [2] deals with IEC18 Rat Epithelial Cells (IEC18-S33Y). To be noted: 17-20 h with compound, WST-1. Here is the method: Using the above assay system, IC50 and LD50 values were determined for the pyrimidotriazinedione compounds. IEC18-S33Y cells carrying a β-catenin firefly luciferase cassette and a constitutively active renilla luciferase cassette were seeded at 40,000 cells/well in 96-well tissue culture plates (BD Biosciences, Bedford, Mass.) in a total volume of 80 μL of tissue culture medium (Dulbecco's modified Eagle medium without Phenol-Red (Invitrogen, Carlsbad, Calif.) supplemented with 10% (v/v) fetal bovine serum (Hyclone, Logan, Utah)) and incubated for 24 h. […] Working solutions of the compounds were obtained by further diluting the stock solutions in tissue culture medium by at least 50-fold. Serial twofold dilutions of the working solutions of the compounds were added to the cells in a volume of 40 μL and the cells were incubated in the presence of the compounds for 17-20 h.
LD50 values of the pyrimidotriazinediones then were determined using a WST-1 colorimetric cell proliferation assay. A mixture containing 20 μL of medium and 10 μL of WST-1 reagent (available from Roche, Indianapolis, Ind.) was added to the cells and the cells were incubated for 1 h at 37° C., after which time absorption at 550 nm was measured using a microplate reader.
In general terms: Tetrazolium assays rely on reduction of a dye to a coloured formazan, in cell work by metabolically active cells.

Data set [3] in a line: Pharmacokinetic properties in mice (plasma level by HPLC/MS). To be noted: 10 mg/kg, plasma 1 minute to 12 hours post-injection. The format is in vivo. As to the method:
The pharmacokinetic properties of a substituted pyrimido[5,4-e][1,2,4]triazine-5,7(6H,8H)-dione of formula II (3-(4-(2-(Diethylamino)ethoxy)phenyl)-8-(3,4-difluorobenzyl)-6-methylpyrimido[5,4-e][1,2,4]triazine-5,7(6H,8H)-dione) in mice were determined by dosing a cohort of mice with 10 mg/kg compound. Blood was drawn from the mice at various time points (1 minute, 15 minutes, 30 minutes, 3 hours, 6 hours, and 12 hours) post-injection. The blood plasma was isolated from the drawn blood and the amount of compound present in the plasma was measured by HPLC with peak analysis by mass spectrometry.

`Cn1nc(-c2ccccc2F)nc2c(=O)[nH]c(=O)nc1-2` [Compound 17a, 3-(2-Fluorophenyl)-1-methylpyrimido[5,4-e][1,2,4]triazine-5,7(1H,6H)-dione]: the melting point is 240 to 247 °C (dec.).
With `Cn1c(=O)c2nc(-c3ccc(Cl)cc3)nnc2n(Cc2ccccc2F)c1=O`, the melting point lay within 251 to 254 °C.
Regarding `CCN(CC)CCOc1ccc(-c2nnc3c(n2)c(=O)n(C)c(=O)n3Cc2ccc(F)c(F)c2)cc1` [Compound 10g, 3-(4-(2-(Diethylamino)ethoxy)phenyl)-8-(3,4-difluorobenzyl)-6-methylpyrimido[5,4-e][1,2,4]triazine-5,7(6H,8H)-dione], the IC50 in data set [1] is 700 ± 130 nM. Moreover, the LD50 in data set [2] was 2.57 ± 10.99 µM. Also, in data set [3], the “pharmacokinetic properties as assessed by peak plasma level and half-life” value is reported as “favorable pharmacokinetic properties”.
For `Cn1c(=O)c2nc(-c3ccccc3)nnc2n(Cc2ccc(C(F)(F)F)cc2)c1=O`, the melting point is 225 to 227 °C (dec.).
`Cn1c(=O)nc2[nH]nc(-c3ccccc3F)nc-2c1=O` returned a melting point of 248 to 250 °C.
`Cn1nc(-c2cccc([N+](=O)[O-])c2)nc2c(=O)n(C)c(=O)nc1-2` yielded a melting point of 223 to 224 °C.
Regarding `Cn1c(=O)c2nc(-c3ccccc3)nnc2n(Cc2ccc(F)cc2)c1=O`, the melting point was in the range of 253 to 254 °C.
As for `Cn1c(=O)nc2n(CCO)nc(-c3ccc(Cl)c(Cl)c3)nc-2c1=O`, the melting point is 208 to 211 °C (dec.).
On the same count and under the same terms, then `COc1ccc(-c2nc3c(=O)n(C)c(=O)nc-3n(CCO)n2)cc1OC`, with 215 to 218 °C (dec.).
Consider `Cn1nc(-c2ccccc2F)nc2c(=O)n(C)c(=O)nc1-2` [Compound 5g, 3-(2-Fluorophenyl)-1,6-dimethylpyrimido[5,4-e][1,2,4]triazine-5,7(1H,6H)-dione], for which the IC50 in data set [1] amounted to 190 ± 14 nM. The LD50 in data set [2] amounted to 0.71 ± 3.31 µM.
For the compound `Cc1nc2c(=O)n(C)c(=O)nc-2n(C)n1` [Compound 5b, 1,3,6-Trimethylpyrimido[5,4-e][1,2,4]triazine-5,7(1H,6H)-dione], the IC50 in data set [1] is 1000 ± 190 nM. In addition, the LD50 in data set [2] was 2.02 ± 0.75 µM.
The corresponding values for `Cn1c(=O)nc2n(CCO)nc(-c3ccc(Cl)cc3)nc-2c1=O` [Compound 8c, 3-(4-Chlorophenyl)-1-(2-hydroxyethyl)-6-methylpyrimido[5,4-e][1,2,4]triazine-5,7(1H,6H)-dione] are 4560 ± 8240 nM and 6.36 ± 21.76 µM.
With `COc1ccc(-c2nnc3c(n2)c(=O)n(C)c(=O)n3Cc2ccc(F)cc2)cc1` [Compound 7j, 8-(4-Fluorobenzyl)-3-(4-methoxyphenyl)-6-methylpyrimido[5,4-e][1,2,4]triazine-5,7(6H,8H)-dione], the melting point is 230 to 234 °C (dec.).
Regarding `CN(C)c1ccc(-c2nc3c(=O)n(C)c(=O)nc-3n(CCO)n2)cc1` [Compound 8i, 3-(4-(Dimethylamino)phenyl)-1-(2-hydroxyethyl)-6-methylpyrimido[5,4-e][1,2,4]triazine-5,7(1H,6H)-dione], the melting point is 170 to 180 °C (dec.).
`Cn1c(=O)nc2n(CCO)nc(-c3ccccc3)nc-2c1=O` [Compound 8a, 1-(2-Hydroxyethyl)-6-methyl-3-phenylpyrimido[5,4-e][1,2,4]triazine-5,7(1H,6H)-dione]: the half-maximal inhibitory concentration (IC50) in data set [1] stood at 970 ± 220 nM. The LD50 in data set [2] was 2.09 ± 0.78 µM.
`Cn1nc(-c2ccc([N+](=O)[O-])cc2)nc2c(=O)n(C)c(=O)nc1-2` had a melting point of 220 to 223 °C.
`Cn1c(=O)nc2n(CCO)nc(-c3ccccn3)nc-2c1=O` [Compound 8j, 1-(2-Hydroxyethyl)-6-methyl-3-(pyridin-2-yl)pyrimido[5,4-e]-[1,2,4]triazine-5,7(1H,6H)-dione]: the IC50 in data set [1] is 3810 ± 590 nM. The LD50 in data set [2] came to 9.55 ± 0.001 µM.
For `Cn1c(=O)c2nc(-c3ccccc3)nnc2n(Cc2ccc([N+](=O)[O-])cc2)c1=O`, the melting point was 274 to 280 °C (dec.).
Still for that read-out and setting: then `CCCn1c(=O)n(C)c(=O)c2nc(-c3ccc(Cl)cc3)nnc21`, with 202 to 205 °C.
Consider `Cc1ccc(-c2n[nH]c3nc(=O)n(C)c(=O)c-3n2)cc1` [Compound 6a, 6-Methyl-3-p-tolylpyrimido[5,4-e][1,2,4]triazine-5,7(1H,6H)-dione], for which the concentration for half-maximal inhibition (IC50) in data set [1] came out at 21100 ± 14100 nM. In addition, the LD50 in data set [2] is more than 50 µM.
As for `Cn1nc(-c2ccccc2F)nc2c(=O)n(Cc3ccc(F)c(F)c3)c(=O)nc1-2` [Compound 17e, 6-(3,4-Difluorobenzyl)-3-(2-fluorophenyl)-1-methylpyrimido[5,4-e][1,2,4]triazine-5,7(1H,6H)-dione], in data set [1], the “inhibitory activity of β-catenin-mediated transcription (in words)” value is reported as “antagonized β-catenin-mediated transcription” and the half-maximal inhibitory concentration (IC50) was found to be 110 ± 60 nM. Besides, in data set [2], the LD50 amounted to 0.48 ± 0.10 µM.
For the compound `CCN(CC)CCOc1ccc(-c2nc3c(=O)n(C)c(=O)nc-3n(C)n2)cc1` [Compound 5l, 3-(4-(2-(Diethylamino)ethoxy)phenyl)-1,6-dimethylpyrimido[5,4-e][1,2,4]triazine-5,7(1H,6H)-dione], the half-maximal inhibitory concentration (IC50) in data set [1] turned out to be 16 ± 18 nM. In data set [2], the LD50 came to 0.136 ± 1 µM.
As to `Cc1ccc(Cn2c(=O)n(C)c(=O)c3nc(-c4ccccc4F)nnc32)cc1`, the melting point was 320 °C (dec.).
Regarding `Cn1nc(-c2ccccc2)[n+]([O-])c2c(=O)n(C)c(=O)nc1-2`, the IC50 in data set [1] was found to be 490 ± 220 nM. In addition, in data set [2], the LD50 was found to be 1.71 ± 46.77 µM.

For the origin of these results see patent US20110166144A1, “Pyrimidotriazinediones and Pyrimidopyrimidinediones and Methods of Using the Same” (THE REGENTS OF THE UNIVERSITY OF MICHIGAN, priority 2008, published 2011).
